Values quoted from earlier work in US20040063658A1, “Nucleoside derivatives for treating hepatitis C virus infection” (priority 2002, published 2004).

Tests used:
[1] = system: HCV; conditions: treatment of HCV with interferon, long term efficacy
[2] = patients treated at currently recommended doses

Compound	response rate [1]	patients with significant hemolysis [2]
interferon	about 25%	
NC(=O)c1ncn([C@@H]2O[C@H](CO)[C@@H](O)[C@H]2O)n1 [Ribavirin, 1-β-D-ribofuranosyl-1H-1,2,-4-triazole-3-carboxamide]		10-20%
